# Molecular target: PRMT5/MEP50 (Homo sapiens (Human), UniProt O14744)
# Experiment: PRMT5 Biochemical Assay (PRMT5/MEP50 enzyme assay on peptide substrate, 3H-SAM Flashplate)
# Description: S-adenosylmethionine (SAM), S-adenosylhomocysteine (SAH), bicine, KCl, Tween20, dimethylsulfoxide (DMSO), bovine skin gelatin (BSG), and Tris(2-carboxyethyl)phosphine hydrochloride solution (TCEP) were purchased from Sigma-Aldrich at the highest level of purity possible. ^3H-SAM was purchase from American Radiolabeled Chemicals with a specific activity of 80 Ci/mmol. 384-well streptavidin Flashplates were purchased from PerkinElmer.
# Peptide representative of human histone H4 residues 1-15 was synthesized with a C-terminal linker-affinity tag motif and a C-terminal amide cap by 21st Century Biochemicals. The peptide was high high-performance liquid chromatography (HPLC) purified to greater than 95% purity and confirmed by liquid chromatography mass spectrometry (LC-MS). The sequence was Ac-[…][K-Biot]-amide (SEQ ID NO.:3).
# Molecular Biology: Full-length human PRMT5 (NM_006109.3) transcript variant 1 clone was amplified from a fetal brain cDNA library, incorporating flanking 5′ sequence encoding a FLAG tag ([…]) (SEQ ID NO.:4) fused directly to Ala 2 of PRMT5. Full-length human MEP50 (NM_024102) clone was amplified from a human testis cDNA library incorporating a 5′ sequence encoding a 6-histidine tag (MHHHHHH) (SEQ ID NO.:5) fused directly to Arg 2 of MEP50. The amplified genes were sublconed into pENTR/D/TEV (Life Technologies) and subsequently transferred by Gateway™ attL×attR recombination to pDEST8 baculvirus expression vector (Life Technologies).
# Recombinant baculovirus and Baculovirus-Infected Insect Cells (BIIC) were generated according to Bac-to-Bac kit instructions (Life Technologies) and Wasilko, 2006, respectively. Protein over-expression was accomplished by infecting exponentially growing Spodoptera frugiperda (SF9) cell culture at 1.2×10^6 cell/ml with a 5000 fold dilution of BIIC stock. Infections were carried out at 27° C. for 72 hours, harvested by centrifugation, and stored at −80° C. for purification.
# Flag-PRMT5/6His-MeP50 was eluted with 300 mM Imidazole in the same buffer. The purity of recovered protein was 87%. Reference: Wasilko, D. J. and S. E. Lee: “TIPS: titerless infected-cells preservation and scale-up” Bioprocess J., 5 (2006), pp. 29-32.
# General Procedure for PRMT5/MEP50 Enzyme Assays on Peptide Substrates.
# The assays were all performed in a buffer consisting of 20 mM Bicine (pH=7.6), 1 mM TCEP, 0.005% BSG, and 0.002% Tween20, prepared on the day of use. Compounds in 100% DMSO (1 ul) were spotted into a polypropylene 384-well V-bottom plates (Greiner) using a Platemate Plus outfitted with a 384-channel head (Thermo Scientific). DMSO (1 ul) was added to Columns 11, 12, 23, 24, rows A-H for the maximum signal control and 1 ul of SAH, a known product and inhibitor of PRMT5/MEP50, was added to columns 11, 12, 23, 24, rows I-P for the minimum signal control. A cocktail (40 ul) containing the PRMT5/MEP50 enzyme and the peptide was added by Multidrop Combi (Thermo-Fisher). The compounds were allowed to incubate with PRMT5/MEP50 for 30 min at 25 degrees Celsius, then a cocktail (10 ul) containing ^3H-SAM was added to initiate the reaction (final volume=51 ul). The final concentrations of the components were as follows: PRMT5/MEP50 was 4 nM, ^3H-SAM was 75 nM, peptide was 40 nM, SAH in the minimum signal control wells was 100 uM, and the DMSO concentration was 1%. The assays were stopped by the addition of non-radioactive SAM (10 ul) to a final concentration of 600 uM, which dilutes the ^3H-SAM to a level where its incorporation into the peptide substrate is no longer detectable. 50 ul of the reaction in the 384-well polypropylene plate was then transferred to a 384-well Flashplate and the biotinylated peptides were allowed to bind to the streptavidin surface for at least 1 hour before being washed three times with 0.1% Tween20 in a Biotek ELx405 plate washer. […]
# PRMT5/MEP50, sequence (O14744 other isoform, or with tags, fused parts or gaps): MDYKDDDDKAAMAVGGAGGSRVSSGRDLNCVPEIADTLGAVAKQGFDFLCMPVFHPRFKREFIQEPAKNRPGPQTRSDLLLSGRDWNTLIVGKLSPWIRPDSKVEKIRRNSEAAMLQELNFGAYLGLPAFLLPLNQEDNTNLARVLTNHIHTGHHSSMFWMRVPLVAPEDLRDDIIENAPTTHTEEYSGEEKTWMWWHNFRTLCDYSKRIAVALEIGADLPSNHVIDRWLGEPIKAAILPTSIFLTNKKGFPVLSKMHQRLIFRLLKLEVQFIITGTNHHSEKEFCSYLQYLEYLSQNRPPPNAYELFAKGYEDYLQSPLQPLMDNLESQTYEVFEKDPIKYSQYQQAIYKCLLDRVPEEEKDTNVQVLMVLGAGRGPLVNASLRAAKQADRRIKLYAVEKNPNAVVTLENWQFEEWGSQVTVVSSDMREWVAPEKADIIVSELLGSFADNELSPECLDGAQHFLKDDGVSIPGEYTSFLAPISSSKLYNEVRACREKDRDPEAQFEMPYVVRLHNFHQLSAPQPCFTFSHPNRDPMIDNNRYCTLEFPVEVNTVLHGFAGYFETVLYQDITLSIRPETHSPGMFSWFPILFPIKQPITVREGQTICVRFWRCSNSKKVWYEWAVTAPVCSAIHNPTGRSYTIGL
# PRMT5/MEP50, sequence (Q9BQA1 other isoform, or with tags, fused parts or gaps partner): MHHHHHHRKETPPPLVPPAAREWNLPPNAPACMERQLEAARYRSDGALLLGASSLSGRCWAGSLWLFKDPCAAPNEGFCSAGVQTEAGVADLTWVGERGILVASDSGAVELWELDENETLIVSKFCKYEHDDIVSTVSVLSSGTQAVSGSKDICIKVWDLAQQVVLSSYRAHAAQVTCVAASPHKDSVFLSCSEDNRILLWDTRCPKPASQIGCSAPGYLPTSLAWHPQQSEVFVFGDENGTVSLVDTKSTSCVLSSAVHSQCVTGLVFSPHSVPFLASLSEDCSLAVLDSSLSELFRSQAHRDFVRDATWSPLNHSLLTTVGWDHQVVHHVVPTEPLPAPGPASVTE
row,Compound,IC50
1,O=C(Cn1ccc2cnc(-c3ccnc(NCC(O)CN4CCc5ccccc5C4)c3)nc21)N1CCCC1 (centres unmarked) [Compound 233],< 100 nM
2,"O=C(Cn1ccc2cnc(-c3ccnc(NCC(O)CN4CCc5ccccc5C4)c3)nc21)N1CCOCC1 (centres unmarked) [Compound 234, 2-(2-(2-((3-(3,4-dihydroisoquinolin-2(1H)-yl)-2-hydroxypropyl)amino)pyridin-4-yl)-7H-pyrrolo[2,3-d]pyrimidin-7-yl)-1-morpholinoethanone]",< 100 nM
3,Cn1cc2ccc(-c3ccnc(NCC(O)CN4CCc5ccccc5C4)c3)cc2n1 (centres unmarked) [Compound 236],< 100 nM
4,"Cn1cnc2ccc(-c3ccnc(NCC(O)CN4CCc5ccccc5C4)c3)nc21 (centres unmarked) [Compound 238, 1-(3,4-dihydroisoquinolin-2(1H)-yl)-3-((4-(3-methyl-3H-imidazo[4,5-b]pyridin-5-yl)pyridin-2-yl)amino)propan-2-ol]",< 100 nM
5,"Cn1ccc2cnc(-c3ccnc(NCC(O)CN4CCc5ccccc5C4)c3)nc21 (centres unmarked) [Compound 239, 1-(3,4-dihydroisoquinolin-2(1H)-yl)-3-((4-(7-methyl-7H-pyrrolo[2,3-d]pyrimidin-2-yl)pyridin-2-yl)amino)propan-2-ol]",< 100 nM
6,OC(CNc1cc(-c2ccc3ncn(C4CCNC4)c3c2)ccn1)CN1CCc2ccccc2C1 (centres unmarked) [Compound 240],< 100 nM
7,OC(CNc1cc(-c2ccc3ncn(C4CCNCC4)c3c2)ccn1)CN1CCc2ccccc2C1 (centres unmarked) [Compound 241],< 100 nM
8,CNC(=O)Cn1ccc2cnc(-c3ccnc(NCC(O)CN4CCc5ccccc5C4)c3)nc21 (centres unmarked) [Compound 245],< 100 nM
9,O=C(Cn1ccc2cnc(-c3ccnc(NCC(O)CN4CCc5ccccc5C4)c3)nc21)N1CCCCC1 (centres unmarked) [Compound 246],< 100 nM
10,CN1CCN(C(=O)Cn2ccc3cnc(-c4ccnc(NCC(O)CN5CCc6ccccc6C5)c4)nc32)CC1 (centres unmarked) [Compound 247],< 100 nM
11,CN1CCC(n2cnc3ccc(-c4ccnc(NCC(O)CN5CCc6ccccc6C5)c4)cc32)C1 (centres unmarked) [Compound 250],< 100 nM
12,"OC(CNc1cc(-c2ccc3ncn(C4CCOCC4)c3c2)ccn1)CN1CCc2ccccc2C1 (centres unmarked) [Compound 251, 1-(3,4-dihydroisoquinolin-2(1H)-yl)-3-((4-(1-(tetrahydro-2H-pyran-4-yl)-1H-benzo[d]imidazol-6-yl)pyridin-2-yl)amino)propan-2-ol]",< 100 nM
13,CN1CCC(n2cnc3ccc(-c4ccnc(NCC(O)CN5CCc6ccccc6C5)c4)cc32)CC1 (centres unmarked) [Compound 252],< 100 nM
14,OC(COc1cccc(-c2ncc3ccn(C4CCNCC4)c3n2)c1)CN1CCc2ccccc2C1 (centres unmarked) [Compound 253],< 100 nM
15,OC(CNc1cc(-c2ncc3ccn(C4CNC4)c3n2)ccn1)CN1CCc2ccccc2C1 (centres unmarked) [Compound 254],< 100 nM
16,OC(CNc1cc(-c2ncc3ccn(C4CCNCC4)c3n2)ccn1)CN1CCc2ccccc2C1 (centres unmarked) [Compound 255],< 100 nM
17,CC(=O)N1CCC(n2ccc3cnc(-c4ccnc(NCC(O)CN5CCc6ccccc6C5)c4)nc32)CC1 (centres unmarked) [Compound 256],< 100 nM
18,"O[C@@H](COc1cccc(-c2cccc3cccnc23)c1)CN1CCc2ccccc2C1 [Compound 257, (R)-1-(3,4-dihydroisoquinolin-2(1H)-yl)-3-(3-(quinolin-8-yl)phenoxy)propan-2-ol]",< 100 nM
19,"O[C@H](COc1cccc(-c2cccc3cccnc23)c1)CN1CCc2ccccc2C1 [Compound 258, (S)-1-(3,4-dihydroisoquinolin-2(1H)-yl)-3-(3-(quinolin-8-yl)phenoxy)propan-2-ol]",101 to 1000 nM
20,Cn1cncc1C(=O)Nc1cccc(OC[C@H](O)CN2CCc3ccccc3C2)c1 [Compound 259],101 to 1000 nM
21,Cn1cncc1C(=O)Nc1cccc(OC[C@@H](O)CN2CCc3ccccc3C2)c1 [Compound 260],1000 to 10000 nM
22,Cn1cc2ccc(-c3cccc(NCC(O)CN4CCc5ccccc5C4)c3)nc2n1 (centres unmarked) [Compound 261],< 100 nM
23,OC(CNc1cc(-c2ccc3ncn(C4COC4)c3c2)ccn1)CN1CCc2ccccc2C1 (centres unmarked) [Compound 265],< 100 nM
